Values of other authors in PMC8025584, “Identification of multipotent drugs for COVID-19 therapeutics with the evaluation of their SARS-CoV2 inhibitory activity” (Computational and Structural Biotechnology Journal, 2021).
Structures can show the parent of a compound that is named as a salt. Where two headings read alike, the source gives them in different places.

System: differentially expressed human proteins in COVID-19
Settings: ref DGIdb, cited from earlier work
[1] = gene CACNA1A, drug-gene interaction listed in DGIdb export
[2] = gene CCR1, drug-gene interaction listed in DGIdb export
[3] = gene HCK, drug-gene interaction listed in DGIdb export

COc1ccc(-c2ccc3cc(C(=O)O)ccc3c2)cc1C12CC3CC(CC(C3)C1)C2
interaction_types (gene JUN, drug-gene interaction listed in DGIdb export): antagonist
interaction_types (gene RXRB): agonist

NC(=O)[C@@H](CCC(F)(F)F)N(Cc1ccc(-c2ncon2)cc1F)S(=O)(=O)c1ccc(Cl)cc1
interaction_types (gene PSENEN): inhibitor

C[C@H](NC(=O)C(=O)Nc1ccccc1C(C)(C)C)C(=O)N[C@@H](CC(=O)O)C(=O)COc1c(F)c(F)cc(F)c1F
interaction_types (gene CASP4): inhibitor
interaction_types (gene CASP5): inhibitor

NS(=O)(=O)c1ccc(S(=O)(=O)Nc2cccc3c(Cl)c[nH]c23)cc1
interaction_types (gene CA1): inhibitor

CNC(=O)[C@@H](NC(=O)[C@H](CC(C)C)[C@H](O)C(=O)NO)C(C)(C)C
interaction_types (gene MMP8): inhibitor

CC(C)[C@H](O)C(=O)N[C@@H](C)C(=O)N[C@@H]1C(=O)N(C)CCc2ccccc21
interaction_types (gene PSENEN): inhibitor

C1CCC2(C1)C1CN(CC3CC3)CC2CN(CC2CC2)C1
interaction_types (gene KCNH7): blocker

COc1ccc(CCN(C)CCCC(C#N)(c2ccc(OC)c(OC)c2)C(C)C)cc1OC (stereo not shown)
interaction_types [1]: inhibitor

CC(=O)Nc1nnc(S(N)(=O)=O)s1 [ACETAZOLAMIDE]
interaction_types (gene CA1): inhibitor

COc1cc(C)c(/C=C/C(C)=C/C=C/C(C)=C/C(=O)O)c(C)c1C [ACITRETIN]
interaction_types (gene RXRB): agonist

Nc1ncnc2c1ncn2[C@@H]1O[C@H](COP(=O)(O)OP(=O)(O)O)[C@@H](O)[C@H]1O [ADENOSINE DIPHOSPHATE]
interaction_types (gene P2RY13): agonist

Nc1ncnc2c1ncn2[C@@H]1O[C@H](COP(=O)(O)O)[C@@H](O)[C@H]1O [ADENOSINE PHOSPHATE]
interaction_types (gene PRKAB1): activator

Nc1ncnc2c1ncn2[C@@H]1O[C@H](COP(=O)(O)OP(=O)(O)OP(=O)(O)O)[C@@H](O)[C@H]1O [ADENOSINE TRIPHOSPHATE]
interaction_types (gene P2RY13): agonist

Nc1ncnc2c1ncn2[C@@H]1O[C@H](CO)[C@@H](O)[C@H]1O [ADENOSINE, reference compound]
interaction_types (gene PI4K2B): inhibitor

CC1=C(/C=C/C(C)=C\C=C\C(C)=C\C(=O)O)C(C)(C)CCC1 [ALITRETINOIN, reference compound]
interaction_types (gene RXRB): agonist

CCCCc1c(-c2ccc(OC)cc2)[nH]c2nccnc12 [ALOISINE]
interaction_types (gene PTK2B): inhibitor

CCC1(c2ccc(N)cc2)CCC(=O)NC1=O (stereo not shown) [AMINOGLUTETHIMIDE, reference compound]
interaction_types (gene CYP19A1): inhibitor

CC(C)c1ccc2oc3nc(N)c(C(=O)O)cc3c(=O)c2c1 [AMLEXANOX, reference compound]
interaction_types (gene S100A12): antagonist
interaction_types (gene S100A13, drug-gene interaction listed in DGIdb export): antagonist

CCOC(=O)C1=C(COCCN)NC(C)=C(C(=O)OC)C1c1ccccc1Cl (stereo not shown) [AMLODIPINE]
interaction_types (gene CA1): inhibitor

CC(C)(C#N)c1cc(Cn2cncn2)cc(C(C)(C)C#N)c1 [ANASTROZOLE]
interaction_types (gene CYP19A1): inhibitor

Cc1c(CN2CCN(C(=O)[C@H](C)O)CC2)sc2c(N3CCOCC3)nc(-c3cnc(N)nc3)nc12 [APITOLISIB]
interaction_types (gene FGR): inhibitor

C[C@H]1[C@@H](O)O[C@@H]2O[C@@]3(C)CC[C@H]4[C@H](C)CC[C@@H]1[C@@]24OO3 [ARTENIMOL]
interaction_types (gene PFN1): ligand

C[C@H]1CC(CN)(CC(=O)O)C[C@@H]1C [ATAGABALIN]
interaction_types [1]: modulator

Nc1ccc(SC[C@@H]2CO[C@](CCc3ccc(Cl)cc3)(Cn3ccnc3)O2)cc1 [AZALANSTAT]
interaction_types (gene CYP19A1): inhibitor

CNC(=O)c1cc(Cl)c(OC(C)(C)C(=O)O)cc1OC[C@@H](O)CN1CCC2(CC1)Cc1cc(Cl)ccc1O2 [AZD4818]
interaction_types [2]: antagonist

CCS(=O)(=O)N1CC(CC#N)(n2cc(-c3ncnc4[nH]ccc34)cn2)C1 [BARICITINIB]
interaction_types (gene GAK, drug-gene interaction listed in DGIdb export): inhibitor
interaction_types (gene PTK2B): inhibitor

O=S(=O)(N[C@H](CO)C(C(F)(F)F)C(F)(F)F)c1ccc(Cl)s1 [BEGACESTAT]
interaction_types (gene PSENEN): inhibitor

NS(=O)(=O)c1cc2c(cc1C(F)(F)F)NC(Cc1ccccc1)NS2(=O)=O (stereo not shown) [BENDROFLUMETHIAZIDE]
interaction_types (gene CA1): inhibitor

NS(=O)(=O)c1nnc(NS(=O)(=O)c2ccccc2)s1 [BENZOLAMIDE]
interaction_types (gene CA1): inhibitor

NS(=O)(=O)c1cc2c(cc1Cl)N=C(CSCc1ccccc1)NS2(=O)=O [BENZTHIAZIDE, reference compound]
interaction_types (gene CA1): inhibitor

CC(C)COCC(CN(Cc1ccccc1)c1ccccc1)N1CCCC1 (stereo not shown) [BEPRIDIL HYDROCHLORIDE]
interaction_types [1]: blocker

CC(C)COCC(CN(Cc1ccccc1)c1ccccc1)N1CCCC1 (stereo not shown) [BEPRIDIL]
interaction_types [1]: inhibitor

C=C(c1ccc(C(=O)O)cc1)c1cc2c(cc1C)C(C)(C)CCC2(C)C [BEXAROTENE, reference compound]
interaction_types (gene RXRB): activator¦agonist

CC(C)(Oc1ccc(CCNC(=O)c2ccc(Cl)cc2)cc1)C(=O)O [BEZAFIBRATE]
interaction_types (gene RXRB): agonist

O=C(O)Cc1cccc(-c2cc(CCCCCCc3ccc(O[C@H]4O[C@H](CO)[C@@H](O)[C@H](O)[C@@H]4O)c(-c4cccc(CC(=O)O)c4)c3)ccc2O[C@H]2O[C@H](CO)[C@@H](O)[C@H](O)[C@@H]2O)c1 [BIMOSIAMOSE]
interaction_types (gene SELL): inhibitor

C=CCC1=C(C)C(OC(=O)[C@@H]2[C@@H](C=C(C)C)C2(C)C)CC1=O (stereo partly shown) [BIOALLETHRIN]
interaction_types [1]: blocker

CC(C)[C@@H](NC(=O)NCC(C)(C)O)C(=O)N1CC[C@](O)(c2ccc(Cl)cc2)C(C)(C)C1 [BMS-817399]
interaction_types [2]: antagonist

COc1cc(Nc2c(C#N)cnc3cc(OCCCN4CCN(C)CC4)c(OC)cc23)c(Cl)cc1Cl [BOSUTINIB]
interaction_types [3]: inhibitor

CCN[C@H]1CN(CCCOC)S(=O)(=O)c2sc(S(N)(=O)=O)cc21 [BRINZOLAMIDE]
interaction_types (gene CA1): inhibitor

CO[C@H]1C(=O)[C@]2(C)[C@@H](OC)C[C@H]3OC[C@@]3(OC(C)=O)[C@H]2[C@H](OC(=O)c2ccccc2)[C@]2(O)C[C@H](OC(=O)[C@H](O)[C@@H](NC(=O)OC(C)(C)C)c3ccccc3)C(C)=C1C2(C)C [CABAZITAXEL, reference compound]
interaction_types (gene TUBA4A): inhibitor¦binder

COc1ccccc1OCCNCC(O)COc1cccc2[nH]c3ccccc3c12 (stereo not shown) [CARVEDILOL, reference compound]
interaction_types (gene KCNJ2): inhibitor

COc1cc(N2CCN(C(=O)Cn3nc(-c4ncc[nH]4)c4cccnc43)CC2)ccc1Cl [CCX354]
interaction_types [2]: antagonist

COc1ccc(S(=O)(=O)N(Cc2cccnc2)[C@@H](C(=O)NO)C(C)C)cc1 [CGS-27023A]
interaction_types (gene MMP8): inhibitor

CCN(CC)CCCC(C)Nc1ccnc2cc(Cl)ccc12 (stereo not shown) [CHLOROQUINE]
interaction_types (gene TNF, drug-gene interaction listed in DGIdb export): inhibitor

NS(=O)(=O)c1cc2c(cc1Cl)N=CNS2(=O)=O [CHLOROTHIAZIDE]
interaction_types (gene CA1): inhibitor

NS(=O)(=O)c1cc(C2(O)NC(=O)c3ccccc32)ccc1Cl (stereo not shown) [CHLORTHALIDONE, reference compound]
interaction_types (gene CA1): inhibitor

CC(C)CCC[C@@H](C)[C@H]1CC[C@H]2[C@@H]3CC=C4C[C@@H](O)CC[C@]4(C)[C@H]3CC[C@]12C [CHOLESTEROL]
interaction_types (gene CLEC4E): ligand

O=c1cc(-c2ccccc2)oc2cc(O)cc(O)c12 [CHRYSIN]
interaction_types (gene CYP1A1): inhibitor

O=P(O)(O)C(Cl)(Cl)P(=O)(O)O [CLODRONIC ACID]
interaction_types (gene SLC25A4): inhibitor

COc1cc2c(c(OC)c1OC)-c1ccc(OC)c(=O)cc1[C@@H](NC(C)=O)CC2 [COLCHICINE]
interaction_types (gene TUBA4A): inhibitor

COc1cc([C@H]2C(C#N)=C(N)Oc3c2ccc(N)c3N)cc(Br)c1OC [CROLIBULIN]
interaction_types (gene TUBA4A): inhibitor

NS(=O)(=O)c1cc2c(cc1Cl)NC(C1CC3C=CC1C3)NS2(=O)=O (stereo not shown) [CYCLOTHIAZIDE, reference compound]
interaction_types (gene CA1): inhibitor

CSCCNc1nc(SCCC(F)(F)F)nc2c1ncn2[C@@H]1O[C@H](COP(=O)(O)OP(=O)(O)C(Cl)(Cl)P(=O)(O)O)[C@@H](O)[C@H]1O [Cangrelor, reference compound]
interaction_types (gene P2RY13): antagonist

Nc1ccncc1 [DALFAMPRIDINE]
interaction_types (gene KCNH7): blocker

Cc1nc(Nc2ncc(C(=O)Nc3c(C)cccc3Cl)s2)cc(N2CCN(CCO)CC2)n1 [DASATINIB]
interaction_types (gene FGR): inhibitor
interaction_types [3]: inhibitor

CNC(=O)c1ccc(Nc2ncc(C(F)(F)F)c(NCc3nccnc3N(C)S(C)(=O)=O)n2)cc1 [DEFACTINIB]
interaction_types (gene PTK2B): inhibitor

COc1ccc2c(c1)[C@]13CCCC[C@@H]1[C@H](C2)N(C)CC3 [DEXTROMETHORPHAN]
interaction_types (gene CYBB): inhibitor

CC1=NS(=O)(=O)c2cc(Cl)ccc2N1 [DIAZOXIDE]
interaction_types (gene CA1): inhibitor

NS(=O)(=O)c1cc(Cl)c(Cl)c(S(N)(=O)=O)c1 [DICHLORPHENAMIDE]
interaction_types (gene CA1): inhibitor

CC(=O)O[C@@]12CO[C@@H]1C[C@H](O)[C@@]1(C)C(=O)[C@H](O)C3=C(C)[C@@H](OC(=O)[C@H](O)[C@@H](NC(=O)OC(C)(C)C)c4ccccc4)C[C@@](O)([C@@H](OC(=O)c4ccccc4)[C@H]21)C3(C)C [DOCETAXEL, reference compound]
interaction_types (gene TUBA4A): inhibitor

CC/C=C\C/C=C\C/C=C\C/C=C\C/C=C\C/C=C\CCC(=O)O [DOCONEXENT]
interaction_types (gene RXRB): activator

CCN[C@H]1C[C@H](C)S(=O)(=O)c2sc(S(N)(=O)=O)cc21 [DORZOLAMIDE]
interaction_types (gene CA1): inhibitor
